Earlier results, collected in US9029390B2, “Oral composition containing an antiplatelet agent of the thienopyridine family in the form of free base” (CLL Pharma, priority 2008, dated 2015).

How the values were obtained:
[1] = patients who received clopidogrel, study CAPRIE

| Structure (SMILES) | solubility in water | frequency of gastro-intestinal bleedings [1] [%] | gastro-intestinal bleedings having required a hospitalization [1] [%] |
| --- | --- | --- | --- |
| COC(=O)[C@H](c1ccccc1Cl)N1CCc2sccc2C1 [clopidogrel free base, clopidogrel] | almost null | – | – |
| COC(=O)[C@H](c1ccccc1Cl)N1CCc2sccc2C1 [clopidogrel] | – | 2.0 | 0.7 |
